Common to all, as to format: cell-based
One assay relates to A2780 (ovarian) cells. The experiment in a line: Anti-proliferative activity, Cell-Titre luminescent viability assay. Conditions: Homo sapiens, 72 h exposure, Cell-Titre luminescent reagent. The method in brief:
(§1)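 Cells attached 24 h at 37° C., 5% CO2, then treated 72 h with compound at 0.3–100 μM or 0.1–30 μM. Viability read by Cell-Titre luminescence after 30 min reagent exposure, normalized to vehicle; EC50 from variable-slope sigmoidal nonlinear regression.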

For the next assay, the system named is A549 (NSCLC) cells. The assay is described as above. Conditions: Homo sapiens, 72 h exposure, Cell-Titre luminescent reagent. A digest of the protocol: as §1
The subject of assay [1] is Caco-2 (colorectal) cells. The description is as above. The following applies: Homo sapiens, 72 h exposure, Cell-Titre luminescent reagent. A digest of the protocol:
as §1

The test system of assay [2] is MIA PaCa-2 (pancreatic) cells. The description is as above. Conditions: Homo sapiens, 72 h exposure, Cell-Titre luminescent reagent. A digest of the protocol: as §1
Another assay relates to PC3 (prostate) cells. Described as above. Conditions: 72 h exposure, Cell-Titre luminescent reagent. The method in brief: as §1
For assay [3], the system named is SK-N-SH neuroblastoma cells. The experiment in a line: Cytotoxicity assay, MTS viability. Conditions: Homo sapiens, 72 hours. A digest of the protocol: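 SK-N-SH cells, 2×10^3/well in DMEM with 10% FBS at 37 °C, treated with 1:2 compound series from 100 μM; MTS viability read after 72 hours. Viability normalised to vehicle control; EC50 taken from dose-response curves.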

In assay [4] the target is T1, Tpm3.1-containing actin microfilaments in SK-N-SH neuroblastoma cells (Homo sapiens, UniProt P06753).
T1 construct: expressed in transfected cells; host or cells: SK-N-SH neuroblastoma cells
In words: Imaging and quantitation of Tpm3.1 mCherry and 488-Atto-Phalloidin actin filaments. Conditions: 24 hours post-treatment, two concentrations, FIG. 2 and FIG. 3. Here is the method:
The ability of compounds 24, 26 and 143 to disrupt Tpm3.1-containing actin microfilaments was investigated in SK—N—SH neuroblastoma cells that express Tpm3.1 labelled with the mCherry fluorophore. Cells were seeded at 3×10^4 cells per well in a volume of 1000 μL complete media onto a 12 well plate containing 13 mm coverslips and left to plate down for 24 hours prior to treatment. Cells were then treated with DMSO and two concentrations of the test compounds. 24 hours post-treatment, cells were fixed with 16% paraformaldehyde (PBS) and stained with 488-Atto-Phalloidin to visualise the actin filament bundles. Single plane images were obtained using the Olympus IX83 epi-fluorescence microscope. Ten fields of view were collected for both Tpm3.1 mCherry fluorophore (FIG. 2) and 488-Atto-Phalloidin (FIG. 3) with each treatment condition.
Quantitation of either Tpm3.1 mCherry filaments or 488-Atto-Phalloidin filaments was performed using ImageJ 1.52p software (ImageJ, NIH). The mean pixel intensity from a cell was measured by using a line across the entire cell cytoplasmic area above or below the nuclear region. The line was made to cross the filament bundles at a 90° angle for the measurement rather than run along a single filament. A total of n=100 cells were measured from ten fields of view. […]

Assay [5] relates to A2780 ovarian cancer cells. In words: In vitro growth inhibition assay, Alamar Blue, single agent IC50. The following applies: Homo sapiens, 72 h drug exposure, Alamar Blue, 384-well (26*: 96-well plate format), read-out: Single-agent IC50. Here is the method: (§2) In vitro growth inhibition assays were performed as technical triplicate in two independent experiments and cell viability was assessed by Alamar Blue assay readout. Briefly, cells in logarithmic phase growth were seeded in 384-well plates in a 50 μL/well assay volume. Cells were seeded at 1,200 cells/well using a Multidrop 384 (Thermo Scientific) and allowed to adhere at 37° C. with 5% CO2, in a humidified atmosphere (LiCONIC incubator). After 24 hours incubation, test compounds, positive control (20 μM Thonzonium bromide, 100% kill) and vehicle only (0.4% DMSO) were added into wells of each assay plate using a Tecan HP D300 Digital Dispenser in technical triplicate under minimum light. Following 72 hours drug exposure, metabolic activity was detected by addition of 10% (v/v) Alamar Blue reagent to each assay well using a Multidrop Cambi (Thermo Scientific) and determined by measurement of fluorescence intensity (excitation 555 nm, emission 585 nm) using an EnSpire (Perkin Elmer) plate reader. Readings were performed at 0 hour (background) and after 6 hours alamar blue incubation at 37° C.
Each drug was tested as a 10-point concentration series with two-fold serial dilutions of each drug. The concentration series for compounds 6 and 8 was 100, 50, 25, 12.5, 6.25, 3.125, 1.563, 0.781, 0.391 and 0.195 μM and for compounds 24, 43 and 48 was 50, 25, 12.5, 6.25, 3.125, 1.563, 0.781, 0.391, 0.195 and 0.098 μM for the two independent experiments. The concentration series for vinorelbine and paclitaxel was 100, 50, 25, 12.5, 6.25, 3.125, 1.5625, 0.781, 0.391 and 0.195 nM. Thonzonium bromide (20 μM) and 0.4% DMSO were used as positive and vehicle controls, respectively. The IC50 value was calculated by derivation of the best-fit line using a sigmoidal dose response model (Activity Base Software Suite, IDES).
Activity Base software suite (IDES, version 8.3.0.175) was used for data analysis. Cell survival is expressed as a percentage of viable cells. IC50 concentrations were calculated by derivation of the best-fit line using a sigmoidal dose response model with technical triplicate data points.

The test system of assay [6] is A2780 ovarian cancer cells. The experiment in a line: Drug combination screen, 6x6 dose matrix, Bliss-independence synergy. Set-up: key to Max. Synergy, Vinorelbine: Bliss synergy score; 0 = no synergy, negative = antagonism; highest in matrix; key to Total Synergy, Vinorelbine: sum of Bliss synergy scores across the dose matrix. The following applies: 72 h (26*: 96-well plate format). Here is the method:
as §2
The two drugs in each combination matrix were dispensed using a Tecan HP D300 Digital Dispenser. Assays were performed in triplicate for each drug combination (test compound/vinorelbine and test compound/paclitaxel combinations). Synergistic drug interactions were calculated from the averaged cell viability data using the methodology described below.
Synergistic drug interactions were determined for each pa1rw1se drug combination by applying the Bliss-independence model that assumes independence of drug mechanisms. Prior to the analysis, percent cell viability (CV) for combination data were converted to fractional cell growth inhibition (GI) by the formula: […]
The Bliss additivism model was used to calculate a predicted combined response C to two single agents with responses A and B (using GI values), as follows:
The final score for any combination was reported as the difference between the value predicted by the additive model and the experimentally observed value, normalised to 100. Using GI values the maximum possible synergy score is 100, with 0 indicating no synergy and negative indicating possible antagonism. Scores were also reported as a “Max synergy” score, which is the highest individual synergy score for each combination matrix, and a “Total synergy” score, which was obtained by summation of each individual synergy score for the matrix.
The single agent IC50 values for the test compounds and their synergy scores in combination with vinorelbine and paclitaxel are presented in Table 4. The data is listed as IC50 mean from technical triplicates for two independent experiments. The averaged IC50 concentrations for the single agents from both runs were then used to generate the 6×6 dose matrices in the synergy experiment. Synergy scores for each drug combination were calculated by the Bliss-independence model. The maximum synergy and total synergy scores for each combination in A2780 cells are listed.

The record followed here is patent US12528792B2, “Sulfonamide compounds and the use thereof in the treatment of cancer” (TROBIO THERAPEUTICS PTY LTD, priority 2019, dated 2026).

T1 sequence (P06753 1-248 isoform P06753-2): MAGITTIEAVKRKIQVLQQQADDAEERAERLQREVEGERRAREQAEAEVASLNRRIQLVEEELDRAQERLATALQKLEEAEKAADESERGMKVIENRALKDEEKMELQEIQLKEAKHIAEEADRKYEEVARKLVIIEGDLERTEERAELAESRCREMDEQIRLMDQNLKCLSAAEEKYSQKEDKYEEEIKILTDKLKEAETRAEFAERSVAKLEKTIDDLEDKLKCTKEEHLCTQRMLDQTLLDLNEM

For `CCC(C)c1ccc(NC(=O)c2ccn(S(=O)(=O)c3ccc4[nH]ccc4c3)c2)cc1` (stereo not drawn) [Compound 24, 1-((1H-indol-5-yl)sulfonyl)-N-(4-(sec-butyl)phenyl)-1H-pyrrole-3-carboxamide], the 50% inhibitory concentration (IC50) amounted to 2500 nM in the assay on A2780 (ovarian) cells; 6 µM in the assay with A549 (NSCLC) cells; 8.45 µM in assay [1]; 8.16 µM in assay [2]; 6.2 µM with PC3 (prostate) cells; 7.4 µM in [3]. In addition, the IC50 in assay [5] was 7.54 µM. The “Disruption of Tpm3.1-containing actin microfilaments” value in assay [4] is “disrupt Tpm3.1-containing actin microfilaments in a dose-dependent manner”. The “Max. Synergy, Paclitaxel” value in assay [6] (combination with paclitaxel, Bliss score) is reported as 16.56. For the same molecule, in [6] (combination with paclitaxel, sum of Bliss scores of the matrix), the “Total Synergy, Paclitaxel” value was 111.86. Moreover, the “Max. Synergy, Vinorelbine” value in assay [6] (combination with vinorelbine, Bliss score) is 14.27. Further, the “Total Synergy, Vinorelbine” value in [6] (combination with vinorelbine, sum of Bliss scores of the matrix) was 61.75.

Usually IC50 stands for the point on the concentration scale where inhibition reaches its midpoint.
